From PMC12656329, “Specific Hepatorenal Toxicity and Cross-Species Susceptibility of Eight Representative Pesticides” (Toxics, 2025)
“Also recorded” adds a separate entry of the source.

Legend:
[1] = system: CCC-HEL-1 hepatocytes; assay: CCK-8 cytotoxicity assay, CCC-HEL-1; format: cell-based; details: Homo sapiens, Hepatocyte; CCK-8, 24 h exposure
Description: (§1) Human embryonic kidney 293T (HEK293T) cells and rat renal NRK cells were maintained in high-glucose DMEM supplemented with 10% fetal bovine serum (FBS) and 1% penicillin–streptomycin at 37 °C under 5% CO2 until reaching 70–80%. Human liver CCC-HEL-1 cells were cultured under identical conditions but with 20% FBS, while rat normal hepatocytes were grown in high-glucose MEM containing 20% FBS and 1% penicillin–streptomycin. Stock solutions (500 g/L) of eight pesticide standards were prepared in dimethyl sulfoxide (DMSO) and stored at −20 °C. Working concentrations were freshly diluted in serum-containing culture medium prior to each experiment.
(§2) The cytotoxicity of eight pesticides on four mammalian cell lines was assessed using the Cell Counting Kit-8 (CCK-8) assay. Initially, stock solutions of each pesticide were prepared by dissolving the compound in dimethyl sulfoxide (DMSO) to a final concentration of 500 g/L. For the assay, cells were seeded into 96-well plates at a density of 2 × 10^4 cells per well in 100 µL of medium and incubated for 24 h at 37 °C under a 5% CO2 atmosphere to allow for attachment. Subsequently, the culture medium was replaced with fresh medium containing the pesticides at a series of final concentrations (0, 10, 100, 200, 400, 800, 1000, and 2500 mg/L). Pesticide working concentrations were prepared through serial dilution of the 500 g/L DMSO stock solution, resulting in variable final DMSO concentrations across treatment groups (ranging from 0.002% to 0.5% v/v). A media-only blank (no cells) was included for background absorbance correction, and a solvent control (0.1% DMSO, no pesticide) was used to account for any vehicle effects. All conditions were performed in five replicates. […] At DMSO concentrations ranging from 0.1% to 0.2%, the viability of all four cell lines remained stable above 80%. At a 1% DMSO concentration, the viability of all four cell types was around 50% or higher (Supplementary Figure S5). Following 24 h of exposure, 10 µL of CCK-8 reagent was added to each well. Absorbance Measurement: After an additional 1 h of incubation in the dark, the optical density (OD) at 450 nm was recorded using a microplate reader. Cell viability was calculated by comparing the OD values of treated groups with those of the blank control. Although some test concentrations exceeded the water solubility of the pesticides, the combination of DMSO and serum in the culture medium maintained a uniform exposure system. No precipitation was observed during the experiment, ensuring that the measured effects are attributed to the bioavailable fraction of the compound. […]
(§3) 1. Pesticide Exposure: After removing the medium, fresh medium containing gradient concentrations (0–2500 mg/L) of each pesticide was added (five replicates per concentration).
(§4) Following 24 h of exposure, 10 µL of CCK-8 reagent was added to each well.
(§5) 2. Absorbance Measurement: After 1 h of dark incubation, the OD at 450 nm was measured using a microplate reader.
(§6) 3. Cell Viability Calculation: Viability was determined by comparing the OD values of treated groups to the blank control. […]

[2] = system: IAR hepatocytes; assay: CCK-8 cytotoxicity assay, IAR; format: cell-based; details: Rattus norvegicus, Hepatocyte; CCK-8, 24 h exposure
Description: as §1, §2, §3, §4, §5, §6

[3] = system: 293T renal cells; assay: CCK-8 cytotoxicity assay, 293T; format: cell-based, human; details: Homo sapiens, HEK-293T, 24 h, CCK-8, 24 h exposure
Description: as §1, §2, §3, §4, §5, §6

[4] = system: NRK renal cells; assay: CCK-8 cytotoxicity assay, NRK; format: cell-based; details: Rattus norvegicus; CCK-8, 24 h exposure
Description: as §1, §2, §3, §4, §5, §6

[5] = system: 293T renal cells; assay: ELISA of toxicity biomarkers (LDH, KIM-1) in culture supernatant, 293T; format: cell-based, human; details: 293T cells, 24 h exposure at median lethal concentration, vs control
Description: The levels of hepatotoxicity biomarkers (ALT, AST, ALP) and nephrotoxicity biomarkers (KIM-1, LDH) in cell culture supernatant were quantified using commercially available ELISA kits (Cloud-Clone Corp., Wuhan, China). 100 μL of the supernatant was added to the pre-coated wells and incubated according to the manufacturer’s protocol (five replicates). After washing, the appropriate detection antibody and substrate were added, and the absorbance was measured at 450 nm using microplate reader. The concentrations of the biomarkers were determined based on standard curves.

[6] = system: MRP2 in CCC-HEL-1 hepatic cells; assay: MRP2 immunofluorescence staining, CCC-HEL-1; format: cell-based, human; details: CCC-HEL-1 cells, 24 h at IC50, immunofluorescence
Description: Cells were seeded at a density of 1 × 10^5 cells per well in immunofluorescence-specific glass-bottom dishes and allowed to adhere for 24 h. […] Following treatment, cells were fixed with 4% paraformaldehyde for 15 min at room temperature and permeabilized with 0.1% Triton X-100 for 10 min. Non-specific binding was blocked with 5% bovine serum albumin (BSA) for 1 h at room temperature. Cells were then incubated with primary antibody against MRP2 (1:300 dilution) overnight at 4 °C. After three washes with PBS, cells were treated with secondary antibody (rabbit anti-IgG, 1:600 dilution) for 1 h at room temperature and washed three times with PBS. Anti-MRP2 antibody (Abcam, ab172630) and Alexa Fluor® 488-conjugated anti-rabbit IgG secondary antibody (Cell Signaling Technology, Danvers, MA, USA, 4412) were used for immunofluorescence staining. Nuclei were counterstained with DAPI Staining Solution (C1005, 10 mL) (Beyotime Biotechnology, Shanghai, China). Fluorescent images were captured using a 10× inverted fluorescence microscope. Quantitative analysis of fluorescence intensity was performed using ImageJ software 2.1.0 (National Institutes of Health, Bethesda, MD, USA).

[7] = system: Rat; details: rat, in vivo, po; cited from earlier work
[8] = basis species not given; ref PPDB: Pesticide Properties DataBase; cited from earlier work

Q: Which results are given for `CCCC1COC(Cn2cncn2)(c2ccc(Cl)cc2Cl)O1` (centres unmarked) [Propiconazole, propiconazole]?
A: IC50 [1]: 72.6 µg/mL; IC50 [2]: 189 µg/mL; IC50 [3]: 27.2 µg/mL; IC50 [4]: 203 µg/mL; LDH release [5]: significantly increased; also recorded: significantly elevated LDH release; MRP2 upregulation relative to controls [6]: 1.5 fold; Mammals - Acute oral LD50 [7]: 550 mg/kg; ADI - Acceptable Daily Intake [8]: 0.04 mg kg⁻¹ bw day⁻¹
